Results on 6 compounds are retold here after patent US20040082664A1, “Derivatives of hydroxyphenyl, a method for preparing thereof and their pharmaceutical composition” (priority 2002, published 2004).

SMILES strings stand for the structures.

For assay [1], the target named is T1, GST-fused lck SH2 domain (Homo sapiens, UniProt P06239).
T1 construct: GST (Glutathione transferase)-fused lck SH2 domain
The assay is described as follows: Inhibition of in vitro binding of lck SH2 domain to its cognate pYEEI peptide (BIAcore 2000). The settings on record: IC50 class for inhibition of GST-lckSH2 binding to immobilized biotinylated […]pYEEIPI peptide; read-out: BOND DEGREE WITH SH2 OF 1ck. The procedure, abridged:
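Surface plasmon resonance: biotinylated pYEEIPI peptide immobilized on the sensor surface, GST-fused lck SH2 domain injected over it. Binding recorded as resonance units (1,000 RU = 1 ng/mm^2); inhibition by compounds seen as reduced RU.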

The subject of assay [2] is IL-2 promoter. The assay is described as follows: IL-2 promoter luciferase reporter assay in anti-CD3 activated Jurkat cells. The conditions noted are these: Homo sapiens, TCR-induced (anti-CD3) IL-2 promoter luciferase, 2 h pre-incubation. The assay is classed as cell-based. The procedure, abridged: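 Jurkat cells transiently transfected with an IL-2 promoter–luciferase plasmid; 24 h later pre-incubated 2 h with compound (1 uM-50 uM), then activated on plates coated with 5 ug/ml anti-CD3. Luciferase activity read by luminometer; IC50 taken as 50% inhibition of TCR-induced promoter activation.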
(A reporter such as luciferase makes a cellular process visible.)

Assay [3] has as its system skin allograft rejection. The assay is described as follows: Inhibition of skin allograft rejection (Balb/c tail skin grafted onto C57BL/6 mouse). It is filed as in vivo. The conditions noted are these: 100 mg/kg/day into abdominal cavity from day of transplantation until complete rejection. The procedure: For the experiment, allogeneic Balb/c(H-2d) mouse-tail skin was grafted onto C57BL/6(H-2b) mouse. Generally 7-8 mice were assigned to each group. All the phenyl derivatives were dissolved in 100% ethanol, mixed with olive oil, and adjusted to the final concentration of ethanol therein less than 5%. […] Meanwhile, for the group of untreated mice, an olive oil-ethanol mixture was administered as a control. The grafted skin was monitored daily after the removal of the bandage on days 7-9. Rejection was defined as more than 80% necrosis of the graft epithelium.

The test system of assay [4] is collagen-induced rheumatoid arthritis. The experiment in a line: Inhibition of collagen-induced rheumatoid arthritis in DBA1/LacJ mice. The arrangement: key: sum of 4 leg scores (0-4 each), max 16. The assay is classed as in vivo, mouse. The conditions noted are these: 50 mg/kg/day i.p. daily; day 15 after treatment (day 36 after primary immunization); sum of scores of four legs, maximum 16; mean ± standard deviation. The procedure, abridged: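 DBA1/LacJ mice primed with collagen II, boosted at 2 weeks with 50 μg C II/IFA. From week 3, compounds at 50 mg/kg/day were given i.p. daily in 5% ethanol–olive oil for 15–20 days (6–8 mice/group). Arthritic index (four paws, maximum 16) was scored daily and reported as group mean ± SD.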

T1 sequence (P06239 127-224 limits assumed): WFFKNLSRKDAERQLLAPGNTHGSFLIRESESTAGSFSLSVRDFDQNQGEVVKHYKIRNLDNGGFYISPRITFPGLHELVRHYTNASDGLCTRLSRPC

Regarding `COC(=O)[C@@H](Cc1ccc(O)c(O)c1)NC(=O)CCc1ccc(O)c(O)c1` [Example 52, 3-(3,4-dihydroxy-phenyl)-2-[3-(3,4-dihydroxy-phenyl)-propionylamino]-propionic acid methyl ester], the IC50 in assay [1] was 10 to 25 µM; in assay [2], 21 µM. In addition, in assay [3], the “Survival time of skin graft tissue (days ± variance)” value (shortened to “Survival time of skin graft tissue”) is 13.4 ± 1.2 days. This compound registered an Arthritis index in assay [4] of 4.0 ± 0.7.

In the case of `COC(=O)[C@@H](Cc1ccc(O)c(O)c1)OC(=O)/C=C/c1ccc(O)c(O)c1` [Example 54, (R)-3-(3,4-dihydroxy-phenyl)-acrylic acid 2-(3,4-dihydroxy-phenyl)-1-methoxycarbonyl ethyl ester], the IC50 in assay [1] is 10 to 25 µM; in assay [2], 4.5 µM. Also, the “Survival time of skin graft tissue” value in assay [3] was 13 ± 0.9 days. In assay [4], the Arthritis index came to 3.5 ± 1.1.

Consider `CCCOC(=O)[C@@H](Cc1ccc(O)c(O)c1)OC(=O)/C=C/c1ccc(O)c(O)c1` [Example 55, (R)-3-(3,4-Dihydroxy-phenyl)-acrylic acid 2-(3,4-dihydroxy-phenyl)-1-propoxycarbonyl ethyl ester], for which the IC50 in assay [1] is 10 to 25 µM; in assay [2], 5.7 µM. In assay [3], the “Survival time of skin graft tissue” value turned out to be 12.1 ± 0.8 days. In assay [4], this compound yielded an Arthritis index of 4.8 ± 0.8.

Take `CC(C)(C)OC(=O)[C@@H](Cc1ccc(O)c(O)c1)OC(=O)/C=C/c1ccc(O)c(O)c1` [Example 56, (R)-3-(3,4-Dihydroxy-phenyl)-acrylic acid 2-(3,4-dihydroxy-phenyl)-1-tert-butoxycarbonyl ethyl ester]: the IC50 is 25 to 50 µM in assay [1] and 6.2 µM in assay [2]. For the same compound, in assay [3], the “Survival time of skin graft tissue” value is 12.9 ± 1.2 days. Also, in assay [4], the Arthritis index was found to be 5.2 ± 0.5.

As for `NC(=O)[C@@H](Cc1ccc(O)c(O)c1)OC(=O)/C=C/c1ccc(O)c(O)c1` [Example 57, (R)-3-(3,4-Dihydroxy-phenyl)-acrylic acid 2-(3,4-dihydroxy-phenyl)-1-carbamoyl ethyl ester], the IC50 in assay [1] is 25 to 50 µM; in assay [2], 5.2 µM. The “Survival time of skin graft tissue” value in assay [3] is on record as 13.1 ± 0.7 days. The same compound had an Arthritis index in assay [4] of 4.5 ± 1.2.

Consider `CC(C)NC(=O)[C@@H](Cc1ccc(O)c(O)c1)OC(=O)/C=C/c1ccc(O)c(O)c1` [Example 58, (R)-3-(3,4-Dihydroxy-phenyl)-acrylic acid 2-(3,4-dihydroxy-phenyl)-1-isopropylcarbamoyl ethyl ester], for which the IC50 is 25 to 50 µM in assay [1] and 5.4 µM in assay [2]. The “Survival time of skin graft tissue” value in assay [3] came out at 12.5 ± 1.3 days. The compound further returned an Arthritis index in assay [4] of 4.8 ± 0.7.
